Consider 13 compounds from PubChem BioAssay (NCI).

What all share (test): inhibition of tumour cell growth, NCI panel, 48 h
The test system of assay [1] is ACHN renal.
The subject of assay [2] is BT-549 breast.
Assay [3] relates to COLO 205 colon.
Assay [4] deals with IGROV1 ovarian.
Assay [5] relates to MDA-MB-231 breast.
Assay [6] relates to SF-268 CNS.
For assay [7], the system named is SK-MEL-2 melanoma.
Assay [8] deals with SK-MEL-5 melanoma.
The subject of assay [9] is SNB-19 CNS.
For assay [10], the system named is SNB-75 CNS.

Each structure is given as a SMILES string.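 Interpolation was linear, between the two tested concentrations surrounding the appropriate level; five concentrations were tested over 48 hours in 96-well plates. TGI is the concentration that stops growth completely.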

As to `O=[N+]([O-])c1cccc2nc3ccccc3c(NCCCN3CCCCC3)c12`, the TGI was found to be 0.0472 µM in [1]; 0.114 µM in assay [2]; 0.0201 µM in assay [3]; 0.0758 µM in assay [4]; 0.0509 µM in assay [5]; 0.199 µM in assay [6]. Also, the TGI amounted to 0.0296 µM in [7], 0.0221 µM in assay [8], 0.444 µM in [9] and 0.0497 µM in assay [10].
With `CCC(=O)NCCc1c2c3c(ccnc3c3ncsc13)-c1ccccc1N2`, the TGI in assay [1] is above 38.3 µM; in [2] it was 57.3 µM; in assay [3] it was above 100 µM; in assay [4] it was above 100 µM; in [5], above 68.4 µM; in assay [6] it was above 100 µM. Also, the TGI is above 100 µM in assay [7], 34.2 µM in [8], above 100 µM in assay [9] and above 88.3 µM in assay [10].
As to `CCOC(=O)c1[nH]c2nc(SC)nc(Nc3ccccc3Cl)c2c1N`, the TGI in assay [1] was 46.1 µM; in assay [2], 82.1 µM; in [3], above 100 µM; in assay [4], 86.2 µM; in [5], 59.3 µM; in assay [6] it was 60.9 µM. The TGI in assay [7] was above 100 µM; in assay [8], 32.7 µM; in [9], 44.5 µM; in assay [10], 38.4 µM.
As to `CC(Oc1ccccc1Cl)C(=O)NN1C(=O)CSC1c1ccc(Cl)cc1` (stereo not given), the TGI in assay [1] turned out to be 63 µM; in assay [2], 45.1 µM; in assay [3], 37.1 µM; in assay [4], 43 µM; in assay [5] it was 32.7 µM; in [6], 47.6 µM. The TGI came to 44.9 µM in assay [7], 31.7 µM in [8], 50.2 µM in assay [9] and 45.4 µM in assay [10].
For the compound `COC(=O)[C@@H]1Cc2cc(O)c(O)cc2C2(CCN(C)CC2)O1`, the TGI in assay [1], in assay [2], in [3], in [4], in assay [5] and in assay [6] was above 10 µM in each case. Besides, the TGI in assay [7], in assay [8], in assay [9] and in assay [10] was above 10 µM throughout.
Turning to `Cn1c(-c2ccc(N=NNc3ccc(-c4n[nH]c(=S)n4C)cc3)cc2)n[nH]c1=S`, the TGI was 3.93 µM in assay [1]; 12.6 µM in assay [2]; above 100 µM in assay [3]; 46.4 µM in assay [4]; 43.4 µM in assay [5]; above 100 µM in assay [6]. In addition, the TGI in [7] is above 100 µM; in [8], 48.1 µM; in [9], 70.2 µM; in assay [10] it was 35.1 µM.
Turning to `NC(N)=NC(N)=Nc1ccccc1` (tested in a mixture with another compound), the TGI in [1], in [2], in assay [3], in assay [4], in assay [5] and in [6] was above 100 µM in each case. Moreover, the TGI in [7], in assay [8], in assay [9] and in [10] was above 100 µM throughout.
For `CN(C)CCCNC(=O)c1cc(NC(=O)c2cc(NC(=O)[C@@H]3C[C@H]3C(=O)Nc3cc(C(=O)Nc4cc(C(=O)NCCCN(C)C)n(C)c4)n(C)c3)cn2C)cn1C`, the TGI in assay [1], in assay [2], in assay [3], in assay [4], in assay [5] and in [6] was above 100 µM throughout. Moreover, the TGI in [7], in assay [8], in assay [9] and in [10] was above 100 µM in each case.
As for `O=c1[nH]c(=O)n(C/C=C/CBr)nc1Br`, the TGI came out at 25.8 µM in assay [1]; 27.7 µM in assay [2]; 27.8 µM in assay [3]; 29.5 µM in assay [4]; 14.1 µM in assay [5]; 28.5 µM in assay [6]. In addition, the TGI was determined as 26 µM in [7], 25.9 µM in assay [8], 28.1 µM in assay [9] and 24.3 µM in assay [10].
Turning to `Oc1cc(CN2COc3ccccc32)c(O)cc1CNC1CCCCC1`, the TGI in [1] is 78.5 µM; in assay [2], 90.9 µM; in assay [3] it was 31.2 µM; in assay [4], above 100 µM; in assay [5], 41.8 µM; in assay [6], 33.6 µM. Also, the TGI in [7] is 50 µM; in assay [8] it was 35.2 µM; in assay [9], above 100 µM; in assay [10], 38.9 µM.
Consider `CC1=CC(C)(C)Nc2ccc(CSc3ccccc3)cc21`, for which the TGI in assay [1] is above 100 µM; in assay [2] it was above 100 µM; in assay [3] it was 52.8 µM; in assay [4] it was above 100 µM; in [5] it was 94.1 µM; in assay [6], above 100 µM. In addition, the TGI in assay [7] is 52.2 µM; in assay [8] it was 32.9 µM; in assay [9] it was above 100 µM; in assay [10], 51.3 µM.
For the compound `O=C(CN(c1ccc(S(=O)(=O)O)cc1)c1ccc(S(=O)(=O)O)cc1)Nn1cnc2ccc(S(=O)(=O)N(c3ccc(S(=O)(=O)O)cc3)c3ccc(S(=O)(=O)O)cc3)cc2c1=O`, the TGI in assay [1], in assay [2], in assay [3], in assay [4], in [5] and in [6] was above 100 µM in each case. In addition, the TGI in [7], in [8], in assay [9] and in assay [10] was above 100 µM throughout.
Turning to `BrCC(Br)(c1ccccc1)c1ccccc1-c1cc(-c2ccccc2)cc(-c2ccccc2)n1` (stereo not given), the TGI in assay [1] came to 23.9 µM; in assay [2], 10.1 µM; in assay [3], 2.81 µM; in assay [4], 19.4 µM; in [5], 11.4 µM; in assay [6], 8.5 µM. Also, the TGI in [7] turned out to be 5.47 µM; in assay [8], 3.82 µM; in assay [9], 31.9 µM; in assay [10] it was 4.08 µM.
